Experimental data reported in patent publication US6573258B2, “Photodynamic porphyrin antimicrobial agents” (Frontier Scientific, Inc., priority 2000, dated 2003).

Legend:
[1] = tested on: E. coli cells; assay: Growth inhibition after 5 min incubation with porphyrin and white-light irradiation; format: cell-based, Escherichia coli
Description: (§1) The abilities of various examples of the porphyrins of the instant invention to kill Gram-negative and Gram-positive bacteria were tested against that of T4MPyP. Each of the compounds was incubated with E. coli and S. aureus cells for 5 minutes, following which the samples were irradiated with white light for varying lengths of time.
(§2) Escherichia coli strain O4 (wild type), and methycillin-resistant Staphylococcus aureus, strain MRSA 110, were grown aerobically at 37° C. in brain heart infusion broth (BHI, Difco, Detroit, Mich.). The cells in the stationary phase of growth were harvested by centrifugation (2,000 g for 15 min) of the broth cultures, washed twice with 10 mM PBS at pH=7.4, containing 2.7 mM KCl and 0.14 M NaCl, and suspended in PBS at a density of 10^8-10^9 cells/ml (absorbance of about 0.7 at 650 nm). Aliquots of 5 ml of the cell suspension were incubated with 1 μM porphyrins for 5 min in the dark at room temperature. After incubation the suspensions were centrifuged and the cell pellets were collected immediately or washed with PBS and centrifuged again for one or three times.
(§3) The toxic effects of T4MPyP and its analogues on E. coli and S. aureus cells were evaluated by measuring the extent of growth inhibition (bacteriostatic effect) and reduction of survival (cytocidal/bacteriocidal effect) following treatment with porphyrin in the dark or upon light exposure.
(§4) In all cases, 5 ml of the cell suspension (10^8-10^9 cells/ml) were incubated for 5 min in the dark at room temperature with the selected photosensitizer at concentrations ranging between 0.5 and 10 μM. After dark-incubation, some of the cell samples were irradiated with white light (150 mW/cm^2). During irradiation, (up to 30 min) the cells were kept at 37° C. and magnetically stirred. The treated and untreated control cells were diluted with BHI and maintained at 37° C. while the absorbance of the suspension at 650 nm was monitored at predetermined time periods for determining growth curves. The percent of growth inhibition in the treated cells was calculated by the following equation: […]
(§5) where AX, and AC are the absorbances measured after 3 h incubation, respectively, for the treated and control cell suspensions, respectively, while A0 represents the initial absorbance and the AC is that of the control cell suspension after 5 hours incubation. Cell survival was determined by plating serially diluted aliquots of treated and untreated cells on brain heart agar and counting the number of colonies after 18-24 h incubation at 37° C.

[2] = tested on: S. aureus cells; assay: as above; format: cell-based, Staphylococcus aureus
Description: as §1, §2, §3
[…] After dark-incubation, some of the cell samples were irradiated with white light (150 mW/cm^2). During irradiation, (up to 30 min) the cells were kept at 37° C. and magnetically stirred. The treated and untreated control cells were diluted with BHI and maintained at 37° C. while the absorbance of the suspension at 650 nm was monitored at predetermined time periods for determining growth curves. The percent of growth inhibition in the treated cells was calculated by the following equation:
as §5

[3] = tested on: E. coli cells; assay: Decrease of cell survival (colony counting) after white-light irradiation; format: cell-based, Escherichia coli; settings: 5 min dark incubation, 15 min white light (150 mW/cm^2)
Description: as §2, §3, §4, §5

[4] = Fluorescence quantum yields; format: physicochemical; settings: for ΦF (PBS), fluorescence quantum yield: in PBS; for ΦF (SDS), fluorescence quantum yield: in aqueous 2% SDS
Description: Ground-state absorption spectra of the porphyrins (ca. 5 μM in phosphate buffered saline (PBS, pH=7.4) were recorded with a Lambda 5 Perkin-Elmer spectrophotometer. Fluorescence spectra, corrected for the instrumental response, were recorded with a Perkin-Elmer (model LS) or a Spex (Fluorolog F112) spectrofluorimeter. Fluorescence quantum yields ((IF) of the porphyrin derivatives in PBS and in water containing 2% sodium dodecylsulfate (a detergent, hereinafter “SDS”) were determined by measuring the area of the emission spectrum (600-800 nm range, excitation at 560 nm) and using tetra-n-propylporphycene in toluene as a reference (ΦF=0.38). Braslavsky et al, J. Photochem. Photobiol. B: Biol., 40:191-198 (1997). In all cases, the absorbance of the sample and the reference solution were kept below 0.1 at the excitation wavelength to minimize inner filter effects.

[5] = Fluorescence decay times (phase-shift method); format: physicochemical; settings: ca. 5 μM, air-equilibrated buffer pH 7.4, λexc = 420 nm, λem > 600 nm
Description: Fluorescence decay times of the porphyrin samples were measured by means of a Spex Fluorolog-τ2 spectrofluorimeter based on the phase-shift method. The frequency response curves (phase-shift and demodulation ratio vs. frequency) were globally analyzed.

[6] = Triplet state properties by laser flash photolysis; format: physicochemical; settings: phosphate-buffered solution; for φT, triplet quantum yield: ε920 estimated by total depletion method
Description: Laser flash photolysis experiments were carried out by use of the setup previously described in Gomer, et al., with excitation wavelengths of 355 and 420 nm. Gorner, et al., Photoinduced electron transfer between styrylanthracenes and electron donors and acceptors in acetonitrile, J. Chem. Soc. Faraday Trans., vol. 88, pp. 29-34 (1992).
The transient spectra of the porphyrins in buffer solutions were recorded upon laser flash photolysis excitation at 355 and 420 nm. […] The decay (growth) of the signal (bleaching) occurred according to first-order kinetics and led to a complete recovery of the ground state with a lifetime of 91 μs. […] This also allowed the triplet quantum yield (φT) to be determined (see Table 3), after calibration of the experimental setup by use of an optically-matched solution of benzophenone in acetonitrile.

[7] = Photosensitized photooxidation of NATA; settings: 10 μM NATA; for ΦSDS × 10^3, quantum yield for photo-oxidation of NATA: aqueous 2% SDS; for ΦPBS × 10^3, quantum yield for photo-oxidation of NATA: phosphate buffered solution
Description: The photosensitizing activity of the various porphyrins was tested by measuring their efficiency in promoting the photooxidation of N-acetyl-L-tryptophanamide (NATA, Aldrich Chem. Co.) as a model biological substrate. Toward this aim, 10 μM NATA in PBS or in water containing 2% SDS was irradiated in the presence of 5 μM porphyrin. The irradiations were performed with 515±10 nm-light isolated by means of an interference filter (Balzers, Liechtenstein), while the solution (2 ml) was magnetically stirred in a quartz cuvette of 1-cm optical path and kept at 25° C. The photosensitized modification of NATA was followed by measuring the decrease in the intensity of its fluorescence emission spectrum (300-450 nm) upon excitation with 290 nm-light at various irradiation times. Plots of in F°/F (where F° and F represent the fluorescence intensity at time 0 and t, respectively) vs. the irradiation time allowed the first-order rate constants of the photo-process to be derived.
The intensity of the incident light was measured by using Aberchrome 999P in toluene as an actinometer. Heller, EPA Newslett., 29:49-60 (1987). This parameter was used to calculate the quantum yields of NATA photooxidation sensitized by the different porphyrins.

[8] = Photostability (photobleaching) under white light; format: physicochemical; settings: 1 μM in PBS
Description: The photostability of the porphyrins was determined in PBS upon illumination of […] solutions with white light (400-800 nm) isolated from the emission of a quartz-halogen lamp equipped with UV and infrared filters (Teclas, Lugano, Switzerland). The lamp was operated at a fluence rate of 150 mW/cm^2. During irradiation, the solution was magnetically stirred and kept at 37° C. The concentration of the porphyrin samples was monitored spectrophotometrically at different irradiation times and the photostability was expressed as the percent residual absorbance referred to the absorbance measured prior to irradiation.

[9] = tested on: E. coli cells; assay: Binding of porphyrins to bacteria cells; format: cell-based, Escherichia coli; settings: 5 min incubation, 1 μM porphyrin, three PBS washings
Description: as §2
(§6) The amount of cell-bound porphyrins was determined in the pellets after resuspension and overnight-incubation in 2% aqueous SDS. The porphyrin concentration in the cell lysate was determined by measuring the intensity of red fluorescence (600-750 nm) emitted after excitation at 420 nm and interpolating the data on a calibration plot obtained with known porphyrin concentrations. The protein content of the cell samples was determined by the method of Lowry (Lowry et al., J. Biol. Chem., 193:265-275 (1951)) and was used to express the amount of porphyrin bound to the cells as nanomoles of porphyrin/mg of protein.

[10] = tested on: S. aureus cells; assay: Binding of porphyrins to bacteria cells; format: cell-based, Staphylococcus aureus; settings: S. aureus, 5 min incubation, 1 μM porphyrin, three PBS washings
Description: as §2, §6

[11] = tested on: S. aureus cells; assay: Dark toxicity of porphyrins on bacteria cells; format: cell-based, Staphylococcus aureus; settings: 10 μM, 5 min incubation in the dark
Description: as §3, §4, §5

[12] = tested on: E. coli cells; assay: Dark toxicity of porphyrins on bacteria cells; format: cell-based, Escherichia coli; settings: 10 μM, 5 min incubation in the dark
Description: as §3, §4, §5

[13] = 1 μM, incubated 5 min, white light 5 min
[14] = Table 5: 1 μM, 5 min incubation, 5 min white light (150 mW/cm^2)
[15] = 10 μM, incubated 5 min, white light 5 min
[16] = 10 μM, incubated 5 min, white light 15 min
[17] = Table 5: 10 μM, 5 min incubation, 5 min white light (150 mW/cm^2)

Structure (SMILES) | DECREASE OF SURVIVAL (log) ([3]; 1 μM porphyrin) | DECREASE OF SURVIVAL (log) ([3]; 10 μM porphyrin) | ΦF (PBS), fluorescence quantum yield [4] | ΦF (SDS), fluorescence quantum yield [4] | A2, relative weight of slow component [5] [%] | τ1, fluorescence decay time of fast component [5] [ns] | τ2, fluorescence decay time of slow component [5] [ns] | λmin of transient spectrum [6] [nm] | φ×ε920 [6] [M⁻¹ cm⁻¹] | τ^air, triplet lifetime [6] [μs] | φT, triplet quantum yield [6] | ΦSDS × 10^3, quantum yield for photo-oxidation of NATA [7] | ΦPBS × 10^3, quantum yield for photo-oxidation of NATA [7] | further results
CCCCCCCCCCCCCCCCCCCCCC[n+]1ccc(-c2c3nc(c(-c4cc[n+](C)cc4)c4ccc([nH]4)c(-c4cc[n+](C)cc4)c4nc(c(-c5cc[n+](C)cc5)c5ccc2[nH]5)C=C4)C=C3)cc1.Cl.Cl.[Cl-].[Cl-].[Cl-].[Cl-] [Porphyrin C22, 5-(4-N-docosanyl)-10,15,20-tris(4-N-methylpyridyl)-21H,23H-porphine tetrachloride dihydrochloride salt] | +0.22 ± 0.07 log | −1.94 ± 0.28 | 0.001 | 0.029 | 73 | 0.5 | 5.9 | 420 | <122 | 0.1 | <0.08 | 0.83 ± 0.08 | below our detection limits | Growth inhibition (%) E. coli [1, 13]: 2.7%; Growth inhibition (%) E. coli ([1]; 1 μM, incubated 5 min, white light 30 min): 18.5%; Growth inhibition (%) E. coli [1, 14]: 3%; Growth inhibition (%) S. aureus [2, 13]: 69.7%; Growth inhibition (%) S. aureus ([2]; 1 μM, incubated 5 min, white light 10 min): 90.2%; Growth inhibition (%) S. aureus ([2]; Table 5: 0.5 μM, 5 min incubation, 5 min white light (150 mW/cm^2)): 27%; Growth inhibition (%) S. aureus [2, 14]: 70%; t^1/2 of initial fast photodegradation phase [8]: 6.5 min
C[n+]1ccc(-c2c3nc(c(-c4cc[n+](C)cc4)c4ccc([nH]4)c(-c4cc[n+](C)cc4)c4nc(c(-c5cc[n+](C)cc5)c5ccc2[nH]5)C=C4)C=C3)cc1.Cc1ccc(S(=O)(=O)[O-])cc1.Cc1ccc(S(=O)(=O)[O-])cc1.Cc1ccc(S(=O)(=O)[O-])cc1.Cc1ccc(S(=O)(=O)[O-])cc1 [Porphyrin T4MPyP, Meso-tetra(N-methyl-4-pyridyl)porphine tetratosylate, reference compound] | +0.28 log | −1.82 ± 0.82 | 0.017 | 0.031 | 71 | 1.0 | 4.7 | 425 | 6814 | 14 | 0.73 | 0.64 ± 0.08 | 0.77 ± 0.21 | Growth inhibition (%) E. coli [1, 15]: 28.7%; Growth inhibition (%) E. coli [1, 16]: 82.8%; Growth inhibition (%) E. coli [1, 17]: 29%; concentration photoinducing significant bacteriostatic and bactericidal action ([1]; both cell strains (S. aureus and E. coli)): 10 µM; Growth inhibition (%) S. aureus [2, 15]: 96.4%; Growth inhibition (%) S. aureus [2, 16]: 100%; Growth inhibition (%) S. aureus [2, 17]: 96%; A1, relative weight of fast component [5]: 29%; λmax of transient spectrum [6]: 480 nm; τ^N2, triplet lifetime ([6]; N2): 91 μs; initially bound porphyrin retained after three washings [9]: 11%; initially bound porphyrin retained after three washings [10]: 16%; inhibition of bacterial cell growth in the dark [11]: barely detectable inhibition; inhibition of bacterial cell growth in the dark [12]: barely detectable inhibition
